Laboratory results taken from article PMC5926957 (Japanese Journal of Cancer Research : Gann, 2002).

Target: P-glycoprotein (P-gp) (Homo sapiens, UniProt P08183)
Experiment: calcein-AM efflux assay in L-MDR1 vs LLC-PK1 cells
Format: cell-based

Sequence of P-glycoprotein (P-gp) (P08183 whole entry): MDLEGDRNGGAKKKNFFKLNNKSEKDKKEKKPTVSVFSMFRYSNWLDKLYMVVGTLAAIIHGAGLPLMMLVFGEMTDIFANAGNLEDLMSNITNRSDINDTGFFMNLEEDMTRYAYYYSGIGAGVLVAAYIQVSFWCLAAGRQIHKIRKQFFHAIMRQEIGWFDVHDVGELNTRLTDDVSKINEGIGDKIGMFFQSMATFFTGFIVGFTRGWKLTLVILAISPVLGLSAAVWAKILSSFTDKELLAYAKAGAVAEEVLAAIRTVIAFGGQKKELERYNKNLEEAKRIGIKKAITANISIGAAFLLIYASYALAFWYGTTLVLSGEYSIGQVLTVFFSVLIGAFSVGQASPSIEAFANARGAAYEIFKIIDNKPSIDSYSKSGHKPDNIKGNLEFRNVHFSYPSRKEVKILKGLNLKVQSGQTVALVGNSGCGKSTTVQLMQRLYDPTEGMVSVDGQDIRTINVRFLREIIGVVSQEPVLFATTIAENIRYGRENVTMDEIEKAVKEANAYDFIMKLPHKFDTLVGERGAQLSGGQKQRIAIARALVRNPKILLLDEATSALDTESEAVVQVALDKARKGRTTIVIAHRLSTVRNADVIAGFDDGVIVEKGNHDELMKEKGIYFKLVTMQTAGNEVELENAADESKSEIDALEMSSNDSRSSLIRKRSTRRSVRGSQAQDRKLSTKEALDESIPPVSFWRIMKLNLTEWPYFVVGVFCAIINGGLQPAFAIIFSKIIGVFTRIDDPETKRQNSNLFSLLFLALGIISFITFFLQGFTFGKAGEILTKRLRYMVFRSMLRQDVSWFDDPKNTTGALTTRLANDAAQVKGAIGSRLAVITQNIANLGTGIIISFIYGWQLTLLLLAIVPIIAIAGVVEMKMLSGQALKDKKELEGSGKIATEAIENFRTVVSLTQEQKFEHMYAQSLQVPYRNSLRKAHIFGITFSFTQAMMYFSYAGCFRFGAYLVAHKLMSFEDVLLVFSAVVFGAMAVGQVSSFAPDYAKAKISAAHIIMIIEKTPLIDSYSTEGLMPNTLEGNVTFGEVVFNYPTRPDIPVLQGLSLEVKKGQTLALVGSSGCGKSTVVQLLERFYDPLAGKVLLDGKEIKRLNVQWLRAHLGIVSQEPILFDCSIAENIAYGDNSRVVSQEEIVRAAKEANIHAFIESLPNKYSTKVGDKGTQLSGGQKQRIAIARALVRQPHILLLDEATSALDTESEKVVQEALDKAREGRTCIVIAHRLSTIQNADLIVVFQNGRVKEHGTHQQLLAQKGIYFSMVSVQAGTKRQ

## CC(C)C[C@H]1C(=O)N2CCC[C@H]2[C@]2(O)O[C@](NC(=O)[C@@H]3C=C4c5cccc6[nH]c(Br)c(c56)C[C@H]4N(C)C3)(C(C)C)C(=O)N12 [bromocriptine]
  Ki: 6.52 µM
